One assay concerns the target T1, vitamin D receptor (VDR) (Bos taurus, UniProt Q28037).
T1 construct: vitamin D receptor (VDR) derived from calf thymus was evaluated; purchased Yamasa Shoyu Co., Ltd. (Choshi, Chiba, Japan) Lot; No. 111931; host or cells: calf thymus (tissue preparation)
T1 sequence (Q28037 1-426): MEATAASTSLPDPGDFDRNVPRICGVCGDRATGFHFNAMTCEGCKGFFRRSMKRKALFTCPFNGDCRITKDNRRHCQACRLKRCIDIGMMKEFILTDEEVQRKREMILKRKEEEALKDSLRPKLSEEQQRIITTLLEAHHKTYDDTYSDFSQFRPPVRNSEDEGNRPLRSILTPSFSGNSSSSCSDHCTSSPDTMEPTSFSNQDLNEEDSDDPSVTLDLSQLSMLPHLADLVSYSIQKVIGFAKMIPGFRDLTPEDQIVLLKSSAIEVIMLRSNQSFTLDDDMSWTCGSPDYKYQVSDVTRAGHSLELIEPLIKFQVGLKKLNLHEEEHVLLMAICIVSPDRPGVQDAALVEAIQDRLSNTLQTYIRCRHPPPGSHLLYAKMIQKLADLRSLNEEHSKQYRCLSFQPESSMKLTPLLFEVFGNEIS
Description: Binding assay for calf thymus vitamin D receptor (VDR). Particulars: relative to 1α,25-dihydroxyvitamin D3 = 1; ratio of concentrations for 50% inhibition of [3H]-1α,25-dihydroxyvitamin D3 binding to calf thymus VDR. How it is done:
Binding Assay for Calf Thymus Vitamin D Receptor (VDR)
The binding ability of the compounds of the present inventions described in the above Examples to vitamin D receptor (VDR) derived from calf thymus was evaluated.
The binding assay was carried out according to the manufacturer's instruction of Yamasa Shoyu Co., Ltd. as follows.
An EtOH solution (sample) containing an increasing amount of each 1α,25-dihydroxyvitamin D3 (as a standard reference material), and Compounds YI-1a, YI-1b, YI-2a, YI-3a, YI-3b, YI-4a, YI-4b, YI-5a, YI-5b, 20-Epi-YI-1a, 20-Epi-YI-1b, 20-Epi-YI-2a, 20-Epi-YI-3a, 20-Epi-YI-4a, 20-Epi-YI-4b, 20-Epi-YI-5a, 20-Epi-YI-5b, 20-Epi-YI-6a, 20-Epi-YI-6b, 20-Epi-YI-7a, 20-Epi-YI-7b, 20-Epi-YI-8a, and 20-Epi-YI-8b was prepared, that is, dilution series were prepared wherein final concentrations of each compounds in a mixture, which is prepared by following step, of receptor solutions, samples, and [^3H]-1α,25-dihydroxyvitamin D3 solutions are 100 nM, 30 nM 10 nM, 1 nM, 300 pM, 100 pM, 30 pM, 10 pM, 3 pM, and 1 pM.
Freeze-dried calf thymus vitamin D receptors (Lot. No. 111931) were purchased from Yamasa Shoyu Co., Ltd. (Choshi, Chiba, Japan) and were dissolved in 45 mL of phosphate buffer (0.3 M KCl, 0.05 M K2HPO4—KH2PO4, pH 7.4) just before use to use as a receptor solution.
50 μL of sample of Compounds YI-1a, YI-1b, YI-2a, YI-3a, YI-3b, YI-4a, YI-4b, YI-5a, YI-5b, 20-Epi-YI-1a, 20-Epi-YI-1b, 20-Epi-YI-2a, 20-Epi-YI-3a, 20-Epi-YI-4a, 20-Epi-YI-4b, 20-Epi-YI-5a, 20-Epi-YI-5b, 20-Epi-YI-6a, 20-Epi-YI-6b, 20-Epi-YI-7a, 20-EPi-YI-7b, 20-Epi-YI-8a, 20-Epi-YI-8b, or 1α,25-dihydroxyvitamin D3 and 500 μL of the receptor solution were pipetted into glass culture tubes. The mixture was vortexed 2-3 times, and incubated for 1 h at room temperature. To each tubes, [^3H]-1α,25-dihydroxyvitamin D3 (ca. 10000 dpm) in 50 μL of EtOH was added, the mixture was vortexed 2-3 times, and the whole mixture was incubated for 18 h at 4° C. (in a refrigerator). Then, 200 μL of DCC (dextran-coated charcoal; purchased from Yamasa Shoyu) was added to each tubes, and allowed to stand for 30 min at 4° C. Bound and free [^3]-1α,25-dihydroxyvitamin D3 were separated by centrifugation at 3000 rpm for 15 min at 4° C. Aliquots (500 μL) of the supernatant were put into vial bottles from each tube, and were mixed with 10 mL of ACS-II fluid scintillator (Amersham, Buckinghamshire, U.K.) and submitted for radioactivity counting.
The relative binding affinity of the vitamin D derivatives of the present inventions to VDR was calculated regarding binding affinity of 1α,25-dihydroxyvitamin D3 to VDR as 1. The following equation was used to calculate the relative VDR binding affinity: X=y/x
X: the relative binding affinity of the compound of the present inventions to VDR
y: the concentration of 1α,25-dihydroxyvitamin D3 required for 50% inhibition of binding [^3H]-1α,25-dihydroxyvitamin D3 to VDR
x: the concentration of the compound of the present inventions required for 50% inhibition of binding [^3H]-1α,25-dihydroxyvitamin D3 to VDR
For `C[C@@H](CCCC(C)(C)O)C1CCC2/C(=C/C=C3C[C@@H](O)C(=CCO)[C@H](O)C3)CCCC21C` (stereo partly drawn) [Compound 20-Epi-YI-8a], the “VDR affinity (relative binding affinity X=y/x)” value is on record as 1.6.
With `COCC1(O)[C@H](O)CC(=C/C=C2\CCCC3(C)C2CCC3[C@H](C)CCCC(C)(C)O)C[C@H]1O` (stereo partly drawn) [YI-5a, 1α,2β,25-trihydroxy-2α-methoxymethyl-19-norvitamin D3], the “VDR affinity (relative binding affinity X=y/x)” value was 1/26.
As for `COCC1(O)[C@H](O)CC(=C/C=C2\CCCC3(C)C2CCC3[C@@H](C)CCCC(C)(C)O)C[C@H]1O` (stereo partly drawn) [Compound 20-Epi-YI-5b, (20S)-1α,2α,25-trihydroxy-2β-methoxymethyl-19-norvitamin D3], the “VDR affinity (relative binding affinity X=y/x)” value was 1/10.
On to `C[C@@H](CCCC(C)(C)O)C1CCC2/C(=C/C=C3C[C@@H](O)C(CCO)[C@H](O)C3)CCCC21C` (stereo partly drawn) [Compound 20-Epi-YI-7a], for which the “VDR affinity (relative binding affinity X=y/x)” value is 1.
Same read-out and setting: as for `CCC1(O)[C@H](O)CC(=C/C=C2\CCCC3(C)C2CCC3[C@@H](C)CCCC(C)(C)O)C[C@H]1O` (stereo partly drawn) [Compound 20-Epi-YI-4b, (20S)-1α,2α,25-trihydroxy-2β-ethyl-19-norvitamin D3], the figure is 1/1000; as for `C[C@@H](CCCC(C)(C)O)C1CCC2/C(=C/C=C3C[C@@H](O)C4(CO4)[C@H](O)C3)CCCC21C` (stereo partly drawn) [Compound 20-Epi-YI-1b, (20S)-1α,25-dihydroxy-2α,2′-epoxy-19-norvitamin D3], 1/5; as for `C[C@H](CCCC(C)(C)O)C1CCC2/C(=C/C=C3C[C@@H](O)C(C)(O)[C@H](O)C3)CCCC21C` (stereo partly drawn) [YI-3a, 1α,2β,25-trihydroxy-2α-methyl-19-norvitamin D3], 1/3.
Same read-out and setting: with `C[C@@H](CCCC(C)(C)O)C1CCC2/C(=C/C=C3C[C@@H](O)C(C)(O)[C@H](O)C3)CCCC21C` (stereo partly drawn) [Compound 20-Epi-YI-3a, (20S)-1α,2β,25-trihydroxy-2α-methyl-19-norvitamin D3] the figure was 1; with `C[C@@H](CCCC(C)(C)O)C1CCC2/C(=C/C=C3C[C@@H](O)C(O)(CF)[C@H](O)C3)CCCC21C` (stereo partly drawn) [Compound 20-Epi-YI-2a, (20S)-1α,2β,25-trihydroxy-2α-fluoromethyl-19-norvitamin D3], 2; with `C[C@H](CCCC(C)(C)O)C1CCC2/C(=C/C=C3C[C@@H](O)C(C)(O)[C@H](O)C3)CCCC21C` (stereo partly drawn) [YI-3b, 1α,2α,25-trihydroxy-2β-methyl-19-norvitamin D3], 1/730.
Still for that read-out and setting: with `C[C@@H](CCCC(C)(C)O)C1CCC2/C(=C/C=C3C[C@@H](O)C(=CCO)[C@H](O)C3)CCCC21C` (stereo partly drawn) [Compound 20-Epi-YI-8b, (20S)-1α,25-dihydroxy-2-[2-(hydroxyl)-ethylidene]-19-norvitamin D3] the figure was 1/50.
On to `CCC1(O)[C@H](O)CC(=C/C=C2\CCCC3(C)C2CCC3[C@H](C)CCCC(C)(C)O)C[C@H]1O` (stereo partly drawn) [YI-4a, 1α,2β,25-trihydroxy-2α-ethyl-19-norvitamin D3], for which the “VDR affinity (relative binding affinity X=y/x)” value is 1/50.
Still for that read-out and setting: with `CCC1(O)[C@H](O)CC(=C/C=C2\CCCC3(C)C2CCC3[C@@H](C)CCCC(C)(C)O)C[C@H]1O` (stereo partly drawn) [Compound 20-Epi-YI-4a, (20S)-1α,2β,25-trihydroxy-2α-ethyl-19-norvitamin D3] the figure was 1/20; with `C[C@H](CCCC(C)(C)O)C1CCC2/C(=C/C=C3C[C@@H](O)C4(CO4)[C@H](O)C3)CCCC21C` (stereo partly drawn) [YI-1b, 1α,25-dihydroxy-2α,2′-epoxy-19-norvitamin D3], 1/290; with `C[C@@H](CCCC(C)(C)O)C1CCC2/C(=C/C=C3C[C@@H](O)C(OCCO)[C@H](O)C3)CCCC21C` (single isomer, unassigned) [Compound 20-Epi-YI-6a], 1.
The same measure, in the same setting: as for `COCC1(O)[C@H](O)CC(=C/C=C2\CCCC3(C)C2CCC3[C@H](C)CCCC(C)(C)O)C[C@H]1O` (stereo partly drawn) [YI-5b, 1α,2α,25-trihydroxy-2β-methoxymethyl-19-norvitamin D3], the figure is 1/820; as for `C[C@H](CCCC(C)(C)O)C1CCC2/C(=C/C=C3C[C@@H](O)C(O)(CF)[C@H](O)C3)CCCC21C` (stereo partly drawn) [YI-2a, 1α,2β,25-trihydroxy-2α-fluoromethyl-19-norvitamin D3], 1/43; as for `CCC1(O)[C@H](O)CC(=C/C=C2\CCCC3(C)C2CCC3[C@H](C)CCCC(C)(C)O)C[C@H]1O` (stereo partly drawn) [YI-4b, 1α,2α,25-trihydroxy-2β-ethyl-19-norvitamin D3], 1/2000.
Turning to `C[C@@H](CCCC(C)(C)O)C1CCC2/C(=C/C=C3C[C@@H](O)C(CCO)[C@H](O)C3)CCCC21C` (stereo partly drawn) [Compound 20-Epi-YI-7b], the “VDR affinity (relative binding affinity X=y/x)” value was 1/5.
Same read-out and setting: as for `COCC1(O)[C@H](O)CC(=C/C=C2\CCCC3(C)C2CCC3[C@@H](C)CCCC(C)(C)O)C[C@H]1O` (stereo partly drawn) [Compound 20-Epi-YI-5a, (20S)-1α,2β,25-trihydroxy-2α-methoxymethyl-19-norvitamin D3], the figure is 1/5; as for `C[C@@H](CCCC(C)(C)O)C1CCC2/C(=C/C=C3C[C@@H](O)C4(CO4)[C@H](O)C3)CCCC21C` (stereo partly drawn) [Compound 20-Epi-YI-1a, (20S)-1α,25-dihydroxy-2β,2′-epoxy-19-norvitamin D3], 1/2.
On to `C[C@@H](CCCC(C)(C)O)C1CCC2/C(=C/C=C3C[C@@H](O)C(OCCO)[C@H](O)C3)CCCC21C` (single isomer, unassigned) [Compound 20-Epi-YI-6b], for which the “VDR affinity (relative binding affinity X=y/x)” value is 5.
For the molecule `C[C@H](CCCC(C)(C)O)C1CCC2/C(=C/C=C3C[C@@H](O)C4(CO4)[C@H](O)C3)CCCC21C` (stereo partly drawn) [YI-1a, 1α,25-dihydroxy-2β,2′-epoxy-19-norvitamin D3], the “VDR affinity (relative binding affinity X=y/x)” value is listed as 1/23.

Another assay has as its system cellular differentiation.
Assay: not given
Particulars: compared with 1,25-(OH)2D3; cited from earlier work.
For the molecule `C[C@H](CCCC(C)(C)O)[C@H]1CC[C@H]2/C(=C/C=C3C[C@@H](O)C[C@H](O)C3)CCC[C@]12C` [19-nor-1,25-(OH)2D3, 19-nor-1α,25-dihydroxyvitamin D3], the cellular effects entry is on record as “equivalent to 1,25-(OH)2D3”.

The record behind these values is patent publication US7402688B2, “2,2-Di-substituted 1alpha,25-dihydroxy-19-norvitamin D derivative” (Wisconsin Alumni Research Foundation, priority 2002, dated 2008).
